Experimental findings from patent US20190015551A1, “CONSTRUCT FOR PREVENTING IMMUNOLOGICAL REJECTION GENERATED WHEN USED IN TRANSPLANTS, AND METHOD FOR USING COLLAGEN IN A GEL STATE, IN THE FORM OF DRY LYOPHILISED SPONGY MOULDINGS AND 3D MATRICES” (ADG I+D SPA, priority 2015, published 2019) are described below.

The test system of this assay is bacterial colonies in pig tissue. Briefly: Microbiological control of pig tissue treated with disinfectants (CFU/plate). Type of assay: cell-based. From the text: FIG. 3. It is shown the microbiological control of tissue for obtaining the collagen product, by means of the methodology described in the present application. It corresponds to CFU/plate in pig tissue treated with povidone-iodine or peracetic acid. […] Abbreviations: PY—povidone-iodine, PA—Peracetic Acid, CFU—colony forming units, CC—work bell control.
FIG. 4. It is shown results of microbiological control. The photographs of the culture plates show the initial growth of bacterial colonies at the beginning (time 0), and the decrease of CFU at 5 minutes, 30 minutes, 1 hour and 3 hours of exposure to the disinfectant; in the top panel povidone-iodine (PY) and in the lower panel peracetic acid (PA).
• i) Sterilization and freezing of the tissue: Pig's head cheeks skin from 175 to 190 days of age were used. Which was immersed for 3.5 hours in a commercial solution of povidone-iodine 10% (Brand: Centrovet) and brushed on both sides every 30 minutes, in a sterile environment, and rinsed with ultra-pure quality water. […] The disinfected tissue is bagged and sealed to freeze at −80° C. (±2.0° C.) in ultra freezer (Brand: Thermoline).

Take `CC(=O)OO` [PA, peracetic acid]: the “formation of bacterial colonies on culture plates” value (3 hours of exposure to the disinfectant) is “the presence of a colony still persists”. Further, the “UCF/plate in pig tissue treated with PY or PA” value came to 132 UCF/plate (exposition time 0 min); 2 UCF/plate (exposition time 5 min); 3 UCF/plate (exposition time 30 min); 7 UCF/plate (exposition time 1 hour); 1 UCF/plate (exposition time 3 hours).
